Values of other authors, collected in paper PMC3038857, “Using Nuclear Receptor Activity to Stratify Hepatocarcinogens” (PLoS ONE, 2011).

Experiments:
Mouse Liver [1] = details: mouse chronic study, liver; coded 6 / Inf, code not explained in table; ref ToxRefDB; cited from earlier work
Mouse Liver [2] = details: mouse chronic study, liver; coded 6 / Inf, code not explained in table; ref ToxRefDB; cited from earlier work; remark: listed apart in the source
Rat Liver [3] = details: rat chronic study, liver; coded 6 / 0, code not explained in table; ref ToxRefDB; cited from earlier work
Rat Liver [4] = details: rat chronic study, liver; coded 6 / 0, code not explained in table; ref ToxRefDB; cited from earlier work; remark: listed apart in the source
Rat Liver [5] = details: rat chronic study, liver; coded 6 / 0, code not explained in table; ref ToxRefDB; cited from earlier work; remark: listed apart in the source
Mouse Liver [6] = details: mouse chronic study, liver; coded 6 / Inf, code not explained in table; ref ToxRefDB; cited from earlier work; remark: listed apart in the source

Row | Structure (SMILES) | CHR_Mouse_Liver_3_NeoplasticLesion (Mouse Liver [1]) | CHR_Mouse_Liver_1_AnyLesion (Mouse Liver [2]) | CHR_Rat_Liver_1_AnyLesion (Rat Liver [3]) | CHR_Rat_Liver_3_NeoplasticLesion (Rat Liver [4]) | CHR_Rat_Liver_2_PreneoplasticLesion (Rat Liver [5]) | CHR_Mouse_Liver_2_PreneoplasticLesion (Mouse Liver [6])
1 | CS/C(C)=N/OC(=O)N(C)SN(C)C(=O)O/N=C(\C)SC [chemical 300] | 6 | 6 | 0 | 0 | 0 | 6
2 | CC(C)(C)C(=O)C(Oc1ccc(Cl)cc1)n1cncn1 (stereo not drawn) [chemical 304] | 6 | 6 | 6 | 0 | 0 | 6
3 | CC(C)(C)C(O)C(Oc1ccc(Cl)cc1)n1cncn1 (stereo not drawn) [chemical 305] | 6 | 6 | 0 | 0 | 0 | 6
4 | COC(=O)c1cccc(C)c1S(=O)(=O)NC(=O)Nc1nc(OCC(F)(F)F)nc(N(C)C)n1 [chemical 317] | 6 | 6 | 0 | 0 | 0 | 6
5 | C=CC1(C)OC(=O)N(c2cc(Cl)cc(Cl)c2)C1=O (stereo not drawn) [chemical 319] | 6 | 6 | 6 | 6 | 6 | 6
